Assay results as given in US20260008758A1, “LINEAR DIPEPTIDYL PEPTIDASE 1 INHIBITORS AND USES THEREOF” (Insmed Incorporated, priority 2024, published 2026).
pIC50: −log10 of the molar value.

Key:
DPP1 in HL-60 cells = DPP1 in HL-60 cells (Homo sapiens (Human), UniProt P53634); experiment: DPP1 Cell IC50 assay; format: cell-based; conditions: H-Gly-Phe-AFC substrate, 60 min pre-incubation
Procedure: Media was changed every three to four days and cells were not allowed to exceed 1×10^6 cells per mL. Prior to assay, cells were collected by centrifugation at 500 rcf for 3 minutes, resuspended in PBS and counted. Cells were diluted in PBS to a concentration of 5×10^5 live cells per mL and transferred to black 96-well plates for assay, 60 μL per well. Test articles were diluted in PBS plus 0.5% DMSO, and 20 μL was added to each assay well. Compound was allowed to pre-incubate with cells with gentle shaking at 100 rpm for 60 minutes at 37° C. in a cell culture incubator maintained at 5% CO2, after which 20 μL of 500 μM H-Gly-Phe-AFC substrate (MP Biomedicals; Solon, OH) was added to each well. Plates were returned to the incubator with shaking at 100 rpm for 30 minutes, after which fluorescence was measured at Excitation/Emission 400/505 nm. % Inhibition was calculated from RFU values compared to control cell wells that received only PBS plus 0.5% DMSO. IC50 values for each compound were calculated via the XLFit (IDBS Version 5.3.1.3) Add-On to Microsoft Excel using the four parameter fit equation y=(A+((B-A)/(1+((C/x)^D)))), which appears as equation number 205 (4 Parameter Logistic Model or Sigmoidal Dose-Response Model) in XLFit.

human DPP1 enzyme = human DPP1 enzyme (Homo sapiens (Human), UniProt P53634); experiment: Human DPP1 enzyme IC50 assay; format: biochemical; conditions: recombinant human DPP1, H-Gly-Arg-AMC substrate 400 μM
How it was run: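 Fluorogenic readout (350/450 nm, every 5 min over 90 min, 37°C) of H-Gly-Arg-AMC cleavage at 400 μM final substrate. Compounds met activated DPP1 first for a 10-min 37°C pre-incubation in MES buffer pH 6.0 with DTT, 1% DMSO final. Four-parameter sigmoidal fit gave IC50.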

DPP1 in HL-60 cells, sequence (P53634 25-134): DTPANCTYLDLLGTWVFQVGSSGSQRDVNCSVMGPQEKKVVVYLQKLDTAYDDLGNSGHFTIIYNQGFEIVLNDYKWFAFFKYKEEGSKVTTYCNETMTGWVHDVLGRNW
DPP1 in HL-60 cells, sequence (P53634 231-394): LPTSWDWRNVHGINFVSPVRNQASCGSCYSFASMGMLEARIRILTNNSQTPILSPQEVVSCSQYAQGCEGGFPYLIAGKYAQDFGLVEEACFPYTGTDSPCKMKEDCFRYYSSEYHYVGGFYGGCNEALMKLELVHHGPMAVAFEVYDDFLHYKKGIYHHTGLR
DPP1 in HL-60 cells, sequence (P53634 395-463): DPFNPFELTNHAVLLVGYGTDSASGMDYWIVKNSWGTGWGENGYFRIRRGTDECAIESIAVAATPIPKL
human DPP1 enzyme, sequence (P53634 25-134): as the sequence (P53634 25-134) above
human DPP1 enzyme, sequence (P53634 231-394): as the sequence (P53634 231-394) above
human DPP1 enzyme, sequence (P53634 395-463): as the sequence (P53634 395-463) above

| SMILES | pIC50 (DPP1 in HL-60 cells) | IC50 (human DPP1 enzyme) [nM] |
| --- | --- | --- |
| Cn1c(=O)oc2ccc(-c3ccc(C[C@@H](C#N)NC(=O)[C@@H](N)Cc4cn[nH]c4)cc3)cc21 [Compound 214, (2S)-2-amino-N-[(1S)-1-cyano-2-[4-(3-methyl-2-oxo-1,3-benzoxazol-5-yl)phenyl]ethyl]-3-(1H-pyrazol-4-yl)propanamide] | ≤ 8.60 | ≥ 15 |
| Cn1c(=O)oc2ccc(-c3ccc(C[C@@H](C#N)NC(=O)[C@H](N)Cc4c[nH]cn4)cc3)cc21 [Compound 215, (2R)-2-amino-N-[(1S)-1-cyano-2-[4-(3-methyl-2-oxo-1,3-benzoxazol-5-yl)phenyl]ethyl]-3-(1H-imidazol-4-yl)propanamide] | ≤ 8.60 | ≥ 15 |
| Cn1c(=O)oc2ccc(-c3ccc(C[C@@H](C#N)NC(=O)C(N)Cc4ncsc4Cl)cc3)cc21 (stereo partly drawn) [Compound 218, 2-amino-3-(5-chloro-1,3-thiazol-4-yl)-N-[(1S)-1-cyano-2-[4-(3-methyl-2-oxo-1,3-benzoxazol-5-yl)phenyl]ethyl]propanamide] | ≤ 8.60 | 5 to 15 |
| Cn1c(=O)oc2ccc(-c3ccc(C[C@@H](C#N)NC(=O)C(C)(N)C4CCCC4)cc3)cc21 (stereo partly drawn) [Compound 219, 2-amino-N-[(1S)-1-cyano-2-[4-(3-methyl-2-oxo-1,3-benzoxazol-5-yl)phenyl]ethyl]-2-cyclopentylpropanamide] | 8.60 to 9.00 | ≤ 5 |
| Cn1c(=O)oc2ccc(-c3ccc(C[C@@H](C#N)NC(=O)C(C)(N)C4CCC4)cc3)cc21 (stereo partly drawn) [Compound 220, 2-amino-N-[(1S)-1-cyano-2-[4-(3-methyl-2-oxo-1,3-benzoxazol-5-yl)phenyl]ethyl]-2-cyclobutylpropanamide] | 8.60 to 9.00 | ≤ 5 |
| Cn1c(=O)oc2ccc(-c3ccc(C[C@@H](C#N)NC(=O)C(N)Cc4cc[nH]n4)cc3)cc21 (stereo partly drawn) [Compound 221, 2-amino-N-[(1S)-1-cyano-2-[4-(3-methyl-2-oxo-1,3-benzoxazol-5-yl)phenyl]ethyl]-3-(1H-pyrazol-3-yl)propanamide] | ≤ 8.60 | ≤ 5 |
| Cn1c(=O)oc2ccc(-c3ccc(C[C@@H](C#N)NC(=O)C4(N)CCCC45CC5)cc3)cc21 (stereo partly drawn) [Compound 222, 4-amino-N-[(1S)-1-cyano-2-[4-(3-methyl-2-oxo-1,3-benzoxazol-5-yl)phenyl]ethyl]spiro[2.4]heptane-4-carboxamide] | 8.60 to 9.00 | ≤ 5 |
| Cn1c(=O)oc2ccc(-c3ccc(C[C@@H](C#N)NC(=O)C(N)Cc4ccon4)cc3)cc21 (stereo partly drawn) [Compound 231, 2-amino-N-[(1S)-1-cyano-2-[4-(3-methyl-2-oxo-1,3-benzoxazol-5-yl)phenyl]ethyl]-3-(1,2-oxazol-3-yl)propanamide] | ≤ 8.60 | ≤ 5 |
| C[C@@H](NCc1cccs1)C(=O)N[C@H](C#N)Cc1ccc(-c2ccc3oc(=O)n(C)c3c2)cc1 [Compound 232, (2R)—N-[(1S)-1-cyano-2-[4-(3-methyl-2-oxo-1,3-benzoxazol-5-yl)phenyl]ethyl]-2-[(thiophen-2-ylmethyl)amino]propanamide] | ≤ 8.60 | ≥ 15 |
| N#Cc1ccc(-c2ccc(C[C@H](C#N)NC(=O)C3(N)CCOCC3)c(I)c2)cc1 [Compound 249, 4-amino-N-[(1R)-1-cyano-2-{4′-cyano-3-iodo-[1,1′-biphenyl]-4-yl}ethyl]oxane-4-carboxamide] | ≤ 8.60 | ≥ 15 |
| Cn1ccc(CC(N)C(=O)N[C@H](C#N)Cc2ccc(-c3ccc4oc(=O)n(C)c4c3)cc2)c1 (stereo partly drawn) [Compound 254, 2-amino-N-[(1S)-1-cyano-2-[4-(3-methyl-2-oxo-1,3-benzoxazol-5-yl)phenyl]ethyl]-3-(1-methylpyrrol-3-yl)propanamide] | ≤ 8.60 | 5 to 15 |
| COCCN(C)CCn1c(=O)oc2ccc(-c3ccc(C[C@@H](C#N)NC(=O)[C@@](C)(N)C4CCCC4)cc3)cc21 [Compound 258A, (2S)-2-amino-N-[(1S)-1-cyano-2-[4-(3-{2-[(2-methoxyethyl)(methyl)amino]ethyl}-2-oxo-1,3-benzoxazol-5-yl)phenyl]ethyl]-2-cyclopentylpropanamide] | ≤ 8.60 | ≥ 15 |
| COCCN(C)CCn1c(=O)oc2ccc(-c3ccc(C[C@@H](C#N)NC(=O)[C@](C)(N)C4CCCC4)cc3)cc21 [Compound 258B, (2R)-2-amino-N-[(1S)-1-cyano-2-[4-(3-{2-[(2-methoxyethyl)(methyl)amino]ethyl}-2-oxo-1,3-benzoxazol-5-yl)phenyl]ethyl]-2-cyclopentylpropanamide] | 8.60 to 9.00 | ≤ 5 |
| CCN1C(=O)Cc2ccc(-c3ccc(C[C@@H](C#N)NC(=O)[C@@](C)(N)C4CCCC4)cc3)cc21 [Compound 259A, (2S)-2-amino-N-[(1S)-1-cyano-2-[4-(1-ethyl-2-oxo-3H-indol-6-yl)phenyl]ethyl]-2-cyclopentylpropanamide] | 8.60 to 9.00 | ≤ 5 |
| CCN1C(=O)Cc2ccc(-c3ccc(C[C@@H](C#N)NC(=O)[C@@](C)(N)C4CCCC4)c(F)c3)cc21 [Compound 264A, (2S)-2-amino-N-[(1S)-1-cyano-2-[4-(1-ethyl-2-oxo-3H-indol-6-yl)-2-fluorophenyl]ethyl]-2-cyclopentylpropanamide] | ≤ 8.60 | ≥ 15 |
| CCN1C(=O)Cc2ccc(-c3ccc(C[C@@H](C#N)NC(=O)[C@](C)(N)C4CCCC4)c(F)c3)cc21 [Compound 264B, (2R)-2-amino-N-[(1S)-1-cyano-2-[4-(1-ethyl-2-oxo-3H-indol-6-yl)-2-fluorophenyl]ethyl]-2-cyclopentylpropanamide] | 8.60 to 9.00 | ≤ 5 |
| CCCCOCCn1c(=O)oc2ccc(-c3ccc(C[C@@H](C#N)NC(=O)C(C)(N)C4CCC4)c(F)c3)cc21 (stereo partly drawn) [Compound 267, 2-amino-N-[(1S)-2-{4-[3-(2-butoxyethyl)-2-oxo-1,3-benzoxazol-5-yl]-2-fluorophenyl}-1-cyanoethyl]-2-cyclobutylpropanamide] | ≤ 8.60 | ≤ 5 |
| CN(C)CCn1c(=O)oc2ccc(-c3ccc(C[C@@H](C#N)NC(=O)C(C)(N)C4CCC4)c(F)c3)cc21 (stereo partly drawn) [Compound 268, 2-amino-N-[(1S)-1-cyano-2-(4-{3-[2-(dimethylamino)ethyl]-2-oxo-1,3-benzoxazol-5-yl}-2-fluorophenyl)ethyl]-2-cyclobutylpropanamide] | 8.60 to 9.00 | ≤ 5 |
| CN1CCC2(CCc3ccc(-c4ccc(C[C@@H](C#N)NC(=O)C(C)(N)C5CCC5)c(F)c4)cc32)CC1 (stereo partly drawn) [Compound 269, 2-amino-N—((S)-1-cyano-2-(2-fluoro-4-(1′-methyl-2,3-dihydrospiro[indene-1,4′-piperidin]-6-yl)phenyl)ethyl)-2-cyclobutylpropanamide] | ≤ 8.60 | ≤ 5 |
| COCCN(C)CCn1c(=O)oc2ccc(-c3ccc(C[C@@H](C#N)NC(=O)[C@@](C)(N)C4CCC4)c(F)c3)cc21 [Compound 270A, (2S)-2-amino-N-[(1S)-1-cyano-2-[2-fluoro-4-(3-{2-[(2-methoxyethyl)(methyl)amino]ethyl}-2-oxo-1,3-benzoxazol-5-yl)phenyl]ethyl]-2-cyclobutylpropanamide] | ≤ 8.60 | ≥ 15 |
| COCCN(C)CCn1c(=O)oc2ccc(-c3ccc(C[C@@H](C#N)NC(=O)[C@](C)(N)C4CCC4)c(F)c3)cc21 [Compound 270B, (2R)-2-amino-N-[(1S)-1-cyano-2-[2-fluoro-4-(3-{2-[(2-methoxyethyl)(methyl)amino]ethyl}-2-oxo-1,3-benzoxazol-5-yl)phenyl]ethyl]-2-cyclobutylpropanamide] | 8.60 to 9.00 | ≤ 5 |
| Cc1cn2cc(-c3ccc(C[C@@H](C#N)NC(=O)[C@@](C)(N)C4CCC4)c(F)c3)cc2c(C)n1 [Compound 272B, (S)-2-amino-N—((S)-1-cyano-2-(4-(1,3-dimethylpyrrolo[1,2-a]pyrazin-7-yl)-2-fluorophenyl)ethyl)-2-cyclobutylpropanamide] | 8.60 to 9.00 | 5 to 15 |
| Cn1c(=O)oc2ccc(-c3ccc(C[C@@H](C#N)NC(=O)C4(N)CCCC45CC5)c(F)c3)cc21 (stereo partly drawn) [Compound 273B, (4R)-4-amino-N-[(1S)-1-cyano-2-[2-fluoro-4-(3-methyl-2-oxo-1,3-benzoxazol-5-yl)phenyl]ethyl]spiro[2.4]heptane-4-carboxamide] | ≥ 9.00 | ≤ 5 |
| CN(C)C[C@H](O)C(=O)N[C@H](C#N)Cc1ccc(-c2ccc3c(n2)CCCN3)cc1F [Compound 276, (2S)—N-[(1S)-1-cyano-2-[2-fluoro-4-(5,6,7,8-tetrahydro-1,5-naphthyridin-2-yl)phenyl]ethyl]-3-(dimethylamino)-2-hydroxypropanamide] | ≤ 8.60 | ≥ 15 |
| CN(C)C[C@H](O)C(=O)N[C@H](C#N)Cc1cc2c(cc1F)-c1ccc(C#N)cc1CO2 [Compound 277A, (2S)—N-[(1S)-1-cyano-2-{8-cyano-2-fluoro-6H-benzo[c]chromen-3-yl}ethyl]-3-(dimethylamino)-2-hydroxypropanamide] | ≤ 8.60 | ≥ 15 |
